Patent US10183009B2, “Therapeutic compounds and uses thereof” (GENENTECH, INC., priority 2014, dated 2019)

molecular target: TAF1-BD2 (Homo sapiens (Human), UniProt P21675); assay: TAF1-BD2 TR-FRET Binding Assay; conditions: Assay: TAF-1
Sequence (P21675 1525-1656 limits assumed): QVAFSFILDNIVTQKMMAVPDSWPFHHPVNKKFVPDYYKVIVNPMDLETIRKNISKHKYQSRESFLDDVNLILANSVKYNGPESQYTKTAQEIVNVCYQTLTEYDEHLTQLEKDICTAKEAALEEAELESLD
Description: Specifically, in a 384 well ProxiPlate TAF1-BD2 (6 nM final) was combined with biotin-ligand (50 nM final) in 50 mM HEPES (pH 7.5), 50 mM NaCl, 1 mM TCEP, 0.01% (w/v) BSA, and 0.008% (w/v) Brij-35 either in the presence of DMSO (final 0.2% DMSO) or compound dilution series in DMSO. After 10 minutes incubation at room temperature, a mixture Eu-W1024 Anti-6×His antibody (Perkin Elmer AD0110) and SureLight™ Allophycocyanin-Streptavidin (APC-SA, Perkin Elmer CR130-100) were added to a final concentrations of 0.2 nMolar antibody and 25 nMolar APC-SA, respectively. After twenty minutes of equilibration, the plates were read on an Envision instrument and IC50s calculated using a four parameter non-linear curve fit.

Row | SMILES | IC50 [nM]
1 | CC(C)=CCn1cc(-c2cccc(C(=O)N(C)C)c2)c2cc[nH]c2c1=O [Example 3, N,N-dimethyl-3-[6-(3-methylbut-2-enyl)-7-oxo-1H-pyrrolo[2,3-c]pyridin-4-yl]benzamide] | 5200
2 | CN(C)C(=O)c1cccc(-c2cn(CC3CC3)c(=O)c3[nH]ccc23)c1 [Example 17, 3-[6-(cyclopropylmethyl)-7-oxo-1H-pyrrolo[2,3-c]pyridin-4-yl]-N,N-dimethyl-benzamide] | 5600

More lines, now with the values ahead:

Row | IC50 [nM] | SMILES
3 | 4500 | C/C=C/Cn1cc(-c2ccc(CO)cc2)c2cc[nH]c2c1=O [Example 29, 6-[(E)-but-2-enyl]-4-[4-(hydroxymethyl)phenyl]-1H-pyrrolo[2,3-c]pyridin-7-one]
4 | 2000 | C/C=C/Cn1cc(-c2ccc(C(=O)N(C)C)c(Cl)c2)c2cc[nH]c2c1=O [Example 43, 4-[6-[(E)-but-2-enyl]-7-oxo-1H-pyrrolo[2,3-c]pyridin-4-yl]-2-chloro-N,N-dimethyl-benzamide]
5 | 1800 | C/C=C/Cn1cc(-c2cc(C(=O)N3CCC3)ccc2OC)c2cc[nH]c2c1=O [Example 71, 4-[5-(azetidine-1-carbonyl)-2-methoxy-phenyl]-6-[(E)-but-2-enyl]-1H-pyrrolo[2,3-c]pyridin-7-one]
6 | 640 | C/C=C/Cn1cc(-c2cccc(C(=O)NC)c2)c2cc[nH]c2c1=O [Example 25, 3-[6-[(E)-but-2-enyl]-7-oxo-1H-pyrrolo[2,3-c]pyridin-4-yl]-N-methyl-benzamide]
7 | 480 | Cc1cc2c(-c3cccc(C(=O)N(C)C)c3)cn(CCC3CC3)c(=O)c2[nH]1 [Example 85, 3-[6-(2-cyclopropylethyl)-2-methyl-7-oxo-1H-pyrrolo[2,3-c]pyridin-4-yl]-N,N-dimethyl-benzamide]

molecular target: BRD4(BD1) (Homo sapiens (Human), UniProt O60885); assay: BRD4 AlphaLisa Binding Assay; conditions: not given

Row | IC50 [nM] | SMILES
8 | 2300 | CCCCn1cc(-c2cccc(C(=O)N(C)C)c2)c2cc(C)[nH]c2c1=O [Example 86, 3-(6-butyl-2-methyl-7-oxo-1H-pyrrolo[2,3-c]pyridin-4-yl)-N,N-dimethyl-benzamide]
